From patent US11466047B2, “Cyclic di-nucleotide compounds as sting agonists” (Merck Sharp & Dohme Corp., priority 2017, dated 2022)
Read-outs that look alike come from different tables or passages of the source.

What was measured:
THP1 cells = assay: IFN-β secretion in THP1 cell culture (5 h); format: cell-based, human; conditions: 30 μM compound, relative to 2′3′-cGAMP at 30 μM; for activation at 30 µM: Homo sapiens, THP-1, 5 h, read-out: % Effect at 30 μM relative to 2′3′-cGAMP
Method: The ability of compounds to stimulate the secretion of interferon-beta from THP1 cells was measured using a human IFN-β AlphaLISA kit (Perkin Elmer, Cat. No. AL265F). The basic protocol is as follows:
A Labcyte Echo 550 acoustic dispenser was used to transfer 120 nL of compound dissolved in DMSO into the wells of an empty, sterile 384-well microplate, (Corning, Cat. No. 3712). THP1 cells (American Type Culture Collection, Cat. No. TIB202) previously frozen in Recovery Medium (Life Technologies, Cat. No. 12648-010) were thawed and immediately diluted 10-fold into 37° C. assay medium (RPMI 1640+L-Glutamine & phenol red, Life Technologies, Cat. No. 11875-085; 0.5% heat inactivated fetal bovine serum, Sigma Aldrich, Cat. No. F4135; 1 mM Sodium Pyruvate, Life Technologies, Cat. No. 11360-070; lx non-essential amino acids; Life Technologies, Cat. No. 11140-050). The cell viability and count was ascertained using a Beckman Coulter V-Cell XR cell counter. The cell suspension was centrifuged at 200×g for 5 min at RT. Cells were resuspended to a density of 0.8×10^6/mL in 37° C. assay medium. Subsequent liquid transfers were performed using either a Matrix electronic multichannel pipette or an Agilent Bravo Automated Liquid Handling Platform.
The assay was started by dispensing 40 μL of the previously prepared cell suspension into the wells of the plate containing compounds. After 5 h incubation at 37° C., 5% CO2 in a humidified atmosphere, the plate of cells and compounds was centrifuged at 200×g for 5 min at RT. From each well, 5 μL of supernatant was transferred into corresponding wells of a white 384-well plate (Perkin Elmer, Cat. No. 6005620). To these supernatant-containing wells was added 10 μL of 5× Anti-Analyte Acceptor beads (50 μg/mL of AlphaLISA HiBlock Buffer) and incubated for 30 min at RT while shaking on an orbital plate shaker. To each well was added 10 μL of 5× Biotinylated Antibody Anti-analyte (5 nM in AlphaLISA HiBlock Buffer) and incubated on an orbital plate shaker for 60 min at RT or overnight at 4° C. To each well was added 25 μL of 2×SA-Donor beads (80 μg/mL in AlphaLISA HiBlock Buffer) and incubated for 30-45 min at RT in the dark while shaking on an orbital plate shaker. The plate was then read on a Perkin Elmer Envision (λex=680 nm, λem=570 nm). The percent effect of the AlphaLISA signal at each compound concentration was calculated based on 30 uM cGAMP positive controls and 0.3% DMSO negative controls. The plot of percent effect versus the log of compound concentration was fit with a 4-parameter concentration response equation to calculate EC50 values. The test compounds were tested at concentrations 30000, 10000, 3333, 1111, 370.4, 123.4, 41.2, 13.7, 4.6, and 1.5 nM with 0.3% residual DMSO. The control compound, cGAMP was tested at concentrations 100000, 33333, 11111, 3704, 1235, 412, 137, 46, and 15 nM with 0.3% residual DMSO.
Compounds of the disclosure were evaluated for IFN-β secretion in THP1 cell culture as described above. The following table tabulates the biological data for these compounds as percent activation relative to 2′3′-cGAMP at the 30 μM concentration.

full-length WT STING = full-length WT STING (Homo sapiens (Human), UniProt Q86WV6, H232R); assay: 3H-cGAMP filtration binding assay (WT STING); conditions: WT STING membrane
Sequence of full-length WT STING (Q86WV6 whole entry, looked up, stated change not applied): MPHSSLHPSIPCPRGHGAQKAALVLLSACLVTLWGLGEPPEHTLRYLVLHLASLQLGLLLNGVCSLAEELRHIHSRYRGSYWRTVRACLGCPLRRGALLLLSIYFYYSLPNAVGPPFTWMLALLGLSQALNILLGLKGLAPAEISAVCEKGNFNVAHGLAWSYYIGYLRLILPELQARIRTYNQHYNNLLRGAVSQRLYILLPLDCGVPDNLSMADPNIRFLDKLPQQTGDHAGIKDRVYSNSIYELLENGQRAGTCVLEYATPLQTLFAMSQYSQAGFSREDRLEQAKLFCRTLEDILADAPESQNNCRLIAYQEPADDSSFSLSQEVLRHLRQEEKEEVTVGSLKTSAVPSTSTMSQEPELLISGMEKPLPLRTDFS
Method: (§1) The ability of compounds to bind STING is quantified by their ability to compete with tritiated cGAMP ligand for human STING receptor membrane using a radioactive filter-binding assay. The binding assay employs STING receptor obtained from Trichoplusia ni cell membranes (T.ni; Expression Systems, cat #94-002F, overexpressing full-length WT STING and tritiated cGAMP ligand.
The basic WT STING filtration assay protocol is as follows:
16 nM of [^3H] c-GAMP ligand was prepared by diluting into assay buffer, and 50 uL of this working stock was manually added to each well of the assay plate. After ligand addition, 2 uL of either titrated test compound, DMSO control (Sigma #276855), or cold cGAMP control was added to the appropriate wells using a BIOMEK FX. The serially titrated compound was prepared on a Hamilton STARPlus CORE in a 96-well plate (Greiner, #651201) using a 1:3 ten-point dose response format. Following compound addition, a 2.2 ug/ml working concentration of STING membrane (SEQ. ID. No. 3) was prepared by diluting concentrated membrane into assay buffer (1×PBS; Invitrogen #SH30028.02) and douncing 7× using a manual tissue homogenizer (Wheaton, #357546). 148 uL of this prepared membrane was then manually added to each well of a 96-well deep-well polypropylene plate (Fisher Scientific, #12-566-121). Compound, ligand, and membrane then incubated for 60 min at RT before the contents of each assay plate were filtered through a 96-well GF/B filter plate (PerkinElmer, #6005250) using a TOMTEC MACH III Cell Harvester equipped with 20 mM HEPES buffer (Fisher Scientific, #BP299500). The filter plates were then dried at 55° C. for 30 min using a pressurized VWR oven before 30 uL of ULTIMA GOLD F scintillate was added to each well. Tritium levels for each reaction well were then measured using a PerkinElmer TopCount plate reader.
(§2) After normalization to controls, the percent activity for each compound concentration was calculated by measuring the amount of remaining radioactivity. The plot of percent activity versus the log of compound concentration was fit with a 4-parameter dose response equation to calculate EC50 values.

full-length HAQ STING = full-length HAQ STING (Homo sapiens (Human), UniProt Q86WV6, G230A/H232R/R293Q/R71H); assay: 3H-cGAMP filtration binding assay (HAQ STING); conditions: competition with tritiated cGAMP ligand, HAQ STING membrane
Sequence of full-length HAQ STING (Q86WV6 whole entry, looked up, stated change not applied): as above
Text: The ability of compounds to bind STING is quantified by the ability to compete with tritiated cGAMP ligand for human STING receptor membrane using a radioactive filter-binding assay. The binding assay employs STING receptor obtained from Hi-Five cell membranes overexpressing full-length HAQ STING prepared in-house and tritiated cGAMP ligand also purified in-house.
as §1, with “#94-002F, www.expressionsystems.com)” for “#94-002F,”, “HAQ” for “WT”
The basic HAQ STING filtration assay protocol is as follows:
The compounds were serially titrated by the Hamilton STARPlus CORE in a 96-well plate (Greiner, #651201) using a 1:3 ten-point dose response format. After compound preparation, a 2.2 ug/ml working concentration of STING membrane (SEQ. ID. No. 1) was prepared by diluting concentrated membrane into assay buffer (lx PBS; Invitrogen #SH30028.02) and douncing 7× using a manual tissue homogenizer (Wheaton, #357546). 148 uL of prepared membrane was then manually added to each well of a 96-well deep-well polypropylene plate (Fisher Scientific, #12-566-121). Following membrane addition, 2 uL of either titrated test compound, DMSO control (Sigma #276855), or cold cGAMP control was added to the appropriate wells using a BIOMEK FX. Compound and membrane then preincubated for 60 min at RT to allow compound binding to equilibrate. Following equilibration, 8 nM of [^3H]c-GAMP ligand was prepared by diluting into assay buffer, and 50 uL of this working stock was then manually added to each well of the assay plate. Plates were then incubated at RT for 60 min, and the contents of each assay plate were then filtered through a 96-well GF/B filter plate (PerkinElmer, #6005250) using a TOMTEC MACH III Cell Harvester equipped with 20 mM HEPES buffer (Fisher Scientific, #BP299500). The filter plates were then dried at 55° C. for 30 min using a pressurized oven before 30 uL of ULTIMA GOLD F scintillate was added to each well. Tritium levels for each reaction well were then measured using a PerkinElmer TopCount plate reader.
as §2

[1] = EC50, competition with tritiated cGAMP ligand
[2] = competition with tritiated cGAMP ligand, read-out: EC50

SMILES	activation at 30 µM (THP1 cells)	EC50 (full-length WT STING; [1])	EC50 (full-length HAQ STING)	% Effect at 30 μM relative to 2′3′-cGAMP (THP1 cells)	EC50 (full-length WT STING; [2])
Nc1nc2c(ncn2[C@@H]2O[C@@H]3COP(=S)(S)O[C@H]4[C@H](F)[C@H](n5cnc6c(N)ncnc65)O[C@@H]4COP(O)(=S)O[C@@H]2[C@@H]3F)c(=O)[nH]1 (single isomer, unassigned) [Example 1]	165%	< 1 nM	< 1 nM	–	–
Nc1nc2c(ncn2[C@@H]2O[C@@H]3COP(=S)(S)O[C@H]4[C@H](F)[C@H](n5cnc6c(N)ncnc65)O[C@@H]4COP(O)(=S)O[C@@H]2[C@@H]3F)c(=O)[nH]1 (single isomer, unassigned) [Example 2]	–	9 nM	2 nM	175%	–
Nc1nc2c(ncn2[C@@H]2O[C@@H]3COP(=S)(S)O[C@H]4C[C@H](n5cnc6c(N)ncnc65)O[C@@H]4COP(O)(=S)O[C@@H]2C3)c(=O)[nH]1 (single isomer, unassigned) [Example 3]	128%	–	2 nM	–	4 nM
Nc1nc2c(ncn2[C@@H]2O[C@@H]3COP(=S)(S)O[C@H]4C[C@H](n5ccc6c(N)ncnc65)O[C@@H]4COP(O)(=S)O[C@@H]2C3)c(=O)[nH]1 (single isomer, unassigned) [Example 5]	95%	–	< 1 nM	–	8 nM
Nc1nc2c(ncn2[C@@H]2O[C@@H]3COP(=S)(S)O[C@H]4C[C@H](n5ccc6c(N)ncnc65)O[C@@H]4COP(O)(=S)O[C@@H]2C3)c(=O)[nH]1 (single isomer, unassigned) [Example 6]	–	–	28 nM	91%	115 nM
Nc1nc2c(ncn2[C@@H]2O[C@@H]3COP(=S)(S)O[C@H]4C[C@H](c5cnc6c(N)ncnn56)O[C@@H]4COP(O)(=S)O[C@@H]2C3)c(=O)[nH]1 (single isomer, unassigned) [Example 7]	–	–	< 1 nM	173%	< 1 nM
Nc1nc2c(ncn2[C@@H]2O[C@@H]3COP(=S)(S)O[C@H]4C[C@H](c5cnc6c(N)ncnn56)O[C@@H]4COP(O)(=S)O[C@@H]2C3)c(=O)[nH]1 (single isomer, unassigned) [Example 8]	–	–	7 nM	110%	13 nM
Nc1nc2c(ncn2[C@@H]2O[C@@H]3COP(=S)(S)O[C@H]4[C@H]5OC[C@]4(COP(O)(=S)O[C@@H]2[C@H]3F)O[C@H]5n2cnc3c(N)ncnc32)c(=O)[nH]1 (stereo partly drawn) [Example 9, 2-amino-9-[(5R,7R,8S,12aR,14R,15R, 15aS,18S)-14-(6-amino-9H-purin-9-yl)-18-fluoro-10-hydroxy-2-sulfanyl-2,10-disulfidohexahydro-14H-15,12a-(epoxymethano)-5,8-methanofuro[3,2-1][1,3,6,9,11,2,10]pentaoxadiphosphacyclotetradecin-7(12H)-yl]-1,9-dihydro-6H-purin-6-one]	26%	–	349 nM	–	4390 nM
Nc1nc2c(ncn2[C@@H]2O[C@@H]3COP(=S)(S)O[C@H]4[C@H]5OC[C@]4(COP(=O)(O)O[C@@H]2[C@H]3F)O[C@H]5n2cnc3c(N)ncnc32)c(=O)[nH]1 (stereo partly drawn) [Example 17, 2-amino-9-[(5R,7R,8S,12aR,14R,15R,15aS,18S)-14-(6-amino-9H-purin-9-yl)-18-fluoro-10-hydroxy-10-oxido-2-sulfanyl-2-sulfidohexahydro-14H-15,12a-(epoxymethano)-5,8-methanofuro[3,2-l][1,3,6,9,11,2,10]pentaoxadiphosphacyclotetradecin-7(12H)-yl]-1,9-dihydro-6H-purin-6-one]	145%	–	15 nM	–	–
Nc1nc2c(ncn2[C@@H]2O[C@@H]3COP(O)(=S)O[C@H]4C[C@H](n5cnc6c(=O)[nH]cnc65)O[C@@H]4COP(=S)(S)O[C@@H]2C3)c(=O)[nH]1 (stereo partly drawn) [Example 26, 2-amino-9-[(5S,7R,8R,12aR,14R,15aS)-2-hydroxy-14-(6-oxo-1,6-dihydro-9H-purin-9-yl)-10-sulfanyl-2,10-disulfidooctahydro-12H-5,8-methanofuro[3,2-1][1,3,6,9,11,2,10]pentaoxadiphosphacyclotetradecin-7-yl]-1,9-dihydro-6H-purin-6-one]	75%	–	–	–	409 nM
